Experimental data published in patent US20230364102A1, “COMPOSITIONS AND METHODS FOR THE TREATMENT OF NEUROLOGICAL DISORDERS” (Duke University, priority 2020, published 2023).

Key:
[1] = tested on: human LRRK2 G2019S or GFP expressing neuronal cultures; test: QPCR-based mtDNA damage assay in primary midbrain neuronal cultures expressing human LRRK2 G2019S; type: cell-based; settings: treated for 6 h
Description: Divide the normalized fluorescence values of each sample by the average normalized fluorescence value to get a ratio. […]

[2] = tested on: primary rat midbrain neurons; test: Rotenone-induced mtDNA damage in primary midbrain neurons; type: cell-based; settings: pre-treated for 24 h before rotenone
Description: (§1) This example describes how mitochondrial DNA damage was measured using a quantitative PCR-based assay as described above. The following reagents and protocol steps as disclosed in Sanders et al., Curr Protoc Toxicol. 2018 May; 76(1): e50, doi: 10.1002/cptx.50 and also in U.S. Pat. No. 11,001,890. The entire contents of said publication and patent are herein incorporated by reference.
(§2) Make a master mix if several samples are being run simultaneously. […]
(§3) Perform the PCR reaction using the PCR amplification profile is as follows for the large mitochondrial PCR product using the KAPA LongRange Hot Start kit: • Melting: 94° C. for 3 min • Amplification: the optimized number of cycles (26-28) of melting (94° C. for 15 sec) and annealing (66° C. for 12 min). • Final extension: To complete the profile and finalize amplification of products, perform a final extension for 10 min at 72° C. • Holding: Hold at 4° C. until products are removed for quantification. […]
(§4) (1) Add 10 μL of each PCR product and 90 μL of TE buffer to each of triplicate wells. […] Follow steps 6, 7 and 8 in Support Protocol 2 for fluorescent quantification of DNA.
(§5) Normalize large mitochondrial PCR product fluorescence values for copy number differences using the small mitochondrial PCR product. […] This is the normalized large mitochondrial fluorescence value (A. M. Furda, Bess, Meyer, & Van Houten, 2012a). […]

[3] = tested on: LRRK2 G2019S patient-derived cells; test: mtDNA damage in LRRK2 G2019S patient-derived cells; type: cell-based, human; settings: 24 h, 1 μM, n=3
Description: as §1, §2, §3, §4, §5

ATM pSer1981 [4] = settings: following treatment with the neurotoxin; cited from earlier work
ATM pSer1981 [5] = test: Western blot of ATM pSer1981 in HEK293 cells; type: cell-based, human; settings: 100 nM, 24 h vs vehicle

Structure (SMILES): CCNc1nc(Nc2cc(F)c(C(=O)N3CCOCC3)cc2OC)ncc1C(F)(F)F [GNE-7915]
- mtDNA damage (mtDNA integrity) [1]: restored mtDNA integrity
- prevention of rotenone induced mtDNA damage [2]: able to prevent rotenone induced mtDNA damage

Structure (SMILES): C[C@@H]1CN(CC(=O)Nc2ccc3c(c2)Cc2cccc(-c4cc(=O)cc(N5CCOCC5)o4)c2S3)C[C@H](C)O1 [KU60019]
- mtDNA damage [3]: sufficient to reverse mtDNA damage

Structure (SMILES): C[n+]1ccc(-c2ccccc2)cc1 [MPP+]
- expression of ATM pSer1981 (ATM pSer1981 [4]): increased

Structure (SMILES): C=C(C)[C@H]1Cc2c(ccc3c2O[C@@H]2COc4cc(OC)c(OC)cc4[C@@H]2C3=O)O1 [rotenone]
- ATM pSer1981 (kinase active) level (ATM pSer1981 [5]): increased ATM pSer1981 levels
- ATM pSer1981 (kinase active) level (ATM pSer1981 [5]; listed as Rotenone): increased levels of ATM pSer1981
